Values quoted from earlier work as cited in patent publication US20110311619A1 (Ethypharm, priority 2008, published 2011).

mean plasma concentration (dose of 300 mg fenofibrate per day): roughly 15 μg/ml | plasma elimination half-life (in vivo): roughly 20 hours | time after ingestion at which maximum plasma concentration is reached (on average, after ingestion of the drug): five
SMILES: CC(C)(Oc1ccc(C(=O)c2ccc(Cl)cc2)cc1)C(=O)O [fenofibric acid]
